Results published in patent US20220243210A1, “ANGIOTENSIN II TYPE 1 RECEPTOR TARGETED OLIGONUCLEOTIDES AND USES THEREOF” (Ionis Pharmaceuticals, Inc., priority 2019, published 2022).
Oligonucleotides are written 5' to 3', each unit as a sugar letter and its base; * is a phosphorothioate linkage, no mark a phosphodiester; rarer units and linkages stand in square brackets, end groups in braces. Plain capitals give the bases only. k = constrained ethyl (cEt); [5mC] = 5-methylcytosine; d = 2'-deoxy (DNA)

Experiments:
[1] = molecular target: T1, human AGTR1 (Homo sapiens, UniProt P30556); experiment: AGTR1 signaling, IP-One Gq kit (IP1 accumulation), HEK-AGTR1 FAP cells; type: cell-based; conditions: 90 minutes
T1 construct: host or cells: HEK293 (HEK-AGTR1 FAP cells)
T1 sequence (P30556 1-359): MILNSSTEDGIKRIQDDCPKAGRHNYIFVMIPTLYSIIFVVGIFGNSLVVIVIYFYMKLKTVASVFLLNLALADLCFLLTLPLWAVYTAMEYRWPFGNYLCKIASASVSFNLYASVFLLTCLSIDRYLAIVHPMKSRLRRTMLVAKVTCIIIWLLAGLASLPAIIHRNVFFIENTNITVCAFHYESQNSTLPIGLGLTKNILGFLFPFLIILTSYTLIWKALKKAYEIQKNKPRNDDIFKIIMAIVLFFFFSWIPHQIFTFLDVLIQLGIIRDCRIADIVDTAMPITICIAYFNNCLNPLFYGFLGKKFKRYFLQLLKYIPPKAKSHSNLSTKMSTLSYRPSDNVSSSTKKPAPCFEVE
Procedure: (§1) Activated AGTR1 couples to the Gαq subunit of heterotrimeric G proteins, which activates the phospholipase C (PLC) and subsequently inositol 1,4,5-trisphosphate (IP3) signaling cascade. AGTR1 signaling was measured using an IP-One Gq kit (cisbio #62IPAPEB). The kit detects the accumulation of inositol monophosphate (IP1), a stable downstream metabolite of IP3 induced by activation of a phospholipase C (PLC) cascade.
An additional control compound, AngII, which consists of the peptide motif […], was also tested. […] AGTR1 activation was measured using the IP-One Gq kit.

[2] = system: HEK-APLNR FAP cells; experiment: IP1 accumulation negative control in HEK-APLNR FAP cells (do not express AGTR1); type: cell-based, human; conditions: 24 hours
Procedure: as §1
As a negative control, Compound Nos. 556089 and 1229761 were also tested in HEK293 cells expressing FAP tagged human Apelin receptor (HEK-APLNR FAP cells from Spectragenetics). […] HEK-APLNR FAP cells were cultured with Compound Nos. 556089 and 1229761, described herein above, at the concentrations detailed in Table 2 for 24 hours.

[3] = system: human MALAT1 RNA; experiment: MALAT1 RNA reduction in HEK-AGTR1 FAP cells, free uptake, 24 hours; type: cell-based; conditions: 24 hours; for MALAT (% control): relative to untreated control cells
Procedure: (§2) At the end of the treatment period, total RNA was isolated from the cells and MALAT1 RNA levels were measured by quantitative real-time PC&. […] MALAT1 RNA levels were normalized according to total RNA content, as measured by RIBOGREEN®. Reduction of MALAT1 RNA is presented Table 3 below as percent MALAT1 RNA amount relative to untreated control (UTC) cells. The half maximal inhibitory concentration (IC50) of each modified oligonucleotide was calculated using a non-linear fit [inhibitor] vs. response—variable slope (four parameters) formula in GraphPad Prism 7.01.

[4] = system: human MALAT1 RNA; experiment: MALAT1 RNA reduction in HEK-AGTR1 FAP cells, free uptake, 48 hours; type: cell-based; conditions: 48 hours; for MALAT (% control): relative to untreated control cells
Procedure: as §2, with “PCR.” for “PC&.”, “Reduction of MALAT1 RNA is presented Table 3 below as percent MALAT1 RNA amount relative to untreated control (UTC) cells.” left out, “response-variable” for “response—variable”, “(three” for “(four”

[5] = system: mouse MALAT RNA; experiment: MALAT RNA reduction in vivo, C57BL6/J mice, multiple dose; conditions: for ED50: IV day 0, 4, 8
Procedure: Compound Nos. 556089, 1229761, and 1229762 are described in Table 1 above. Compound Nos. 556089, 1229761, and 1229762 were tested in C57BL6/J mice. The mice were divided into groups of 4 mice each. […] The mice were then sacrificed on day 12. Heart, adipose, adrenal, kidney, and liver tissue was then collected and homogenized and RNA analysis was performed. A group of 4 mice received PBS as a negative control.
RNA was extracted from heart, adipose, adrenal, kidney, and liver tissue for real-time PCR analysis of measurement of RNA expression of MALAT using primer probe set mMALAT1 #2 (forward sequence […] (SEQ ID NO: 5); reverse sequence […] (SEQ ID NO: 6); probe sequence […] (SEQ ID NO: 7)). Results are presented as percent change of RNA, relative to PBS control, normalized to mouse GAPDH.

Substance: Compound No. 556089: Control unconjugated parent modified oligonucleotide GCATTCTAATAGCAGC, cEt gapmer, phosphorothioate, complementary to mouse MALAT1 RNA (kG*k[5mC]*kA*dT*dT*d[5mC]*dT*dA*dA*dT*dA*dG*d[5mC]*kA*kG*k[5mC]) [reference compound]
- IP1 accumulation ([1]; 0.0256 nM): 696 nM
- IP1 accumulation ([1]; 0.128 nM): 669 nM
- IP1 accumulation ([1]; 0.64 nM): 692 nM
- IP1 accumulation ([1]; 3.2 nM): 658 nM
- IP1 accumulation ([1]; 16 nM): 646 nM
- IP1 accumulation ([1]; 80 nM): 605 nM
- IP1 accumulation ([1]; 400 nM): 648 nM
- IP1 accumulation ([1]; 2000 nM): 672 nM
- IP1 accumulation ([2]; 0.0256 nM): 584 nM
- IP1 accumulation ([2]; 0.128 nM): 536 nM
- IP1 accumulation ([2]; 0.64 nM): 563 nM
- IP1 accumulation ([2]; 3.2 nM): 538 nM
- IP1 accumulation ([2]; 16 nM): 526 nM
- IP1 accumulation ([2]; 80 nM): 514 nM
- IP1 accumulation ([2]; 400 nM): 553 nM
- IP1 accumulation ([2]; 2000 nM): 542 nM
- MALAT (% control) ([3]; 12 nM): 86 % control
- MALAT (% control) ([3]; 37 nM): 98 % control
- MALAT (% control) ([3]; 111 nM): 91 % control
- MALAT (% control) ([3]; 333 nM): 63 % control
- MALAT (% control) ([3]; 1000 nM): 60 % control
- MALAT (% control) ([3]; 3000 nM): 36 % control
- MALAT (% control) ([3]; 9000 nM): 29 % control
- IC50 ([3]; MALAT1 RNA, four parameter fit): 850 nM
- MALAT (% control) ([4]; 2.7 nM): 97 % control
- MALAT (% control) ([4]; 8.2 nM): 100 % control
- MALAT (% control) ([4]; 24.7 nM): 104 % control
- MALAT (% control) ([4]; 74.1 nM): 99 % control
- MALAT (% control) ([4]; 222.2 nM): 82 % control
- MALAT (% control) ([4]; 666.7 nM): 68 % control
- MALAT (% control) ([4]; 2000 nM): 43 % control
- MALAT (% control) ([4]; 6000 nM): 25 % control
- MALAT (% control) ([4]; .10 nM): 104 % control
- MALAT (% control) ([4]; .3 nM): 106 % control
- MALAT (% control) ([4]; .9 nM): 101 % control
- IC50 ([4]; MALAT1 RNA, three parameter fit): 1530 nM
- MALAT-1 RNA (% control) ([5]; Adipose, 0.4 μmol/kg IV day 0, 4, 8, sacrifice day 12, relative to PBS): 68.4 % control
- MALAT-1 RNA (% control) ([5]; Adipose, 1.2 μmol/kg IV day 0, 4, 8, sacrifice day 12, relative to PBS): 41.1 % control
- MALAT-1 RNA (% control) ([5]; Adipose, 3.6 μmol/kg IV day 0, 4, 8, sacrifice day 12, relative to PBS): 27.3 % control
- ED50 ([5]; Adipose): 0.034 µmol/kg
- MALAT-1 RNA (% control) ([5]; Adrenal, 0.4 μmol/kg IV day 0, 4, 8, sacrifice day 12, relative to PBS): 95.2 % control
- MALAT-1 RNA (% control) ([5]; Adrenal, 1.2 μmol/kg IV day 0, 4, 8, sacrifice day 12, relative to PBS): 75.7 % control
- MALAT-1 RNA (% control) ([5]; Adrenal, 3.6 μmol/kg IV day 0, 4, 8, sacrifice day 12, relative to PBS): 64.1 % control
- ED50 ([5]; Adrenal): 1.102 µmol/kg
- MALAT-1 RNA (% control) ([5]; Heart, 0.4 μmol/kg IV day 0, 4, 8, sacrifice day 12, relative to PBS): 76.7 % control
- MALAT-1 RNA (% control) ([5]; Heart, 1.2 μmol/kg IV day 0, 4, 8, sacrifice day 12, relative to PBS): 74.7 % control
- MALAT-1 RNA (% control) ([5]; Heart, 3.6 μmol/kg IV day 0, 4, 8, sacrifice day 12, relative to PBS): 45.7 % control
- ED50 ([5]; Heart): 4.11 µmol/kg
- MALAT-1 RNA (% control) ([5]; Kidney, 0.4 μmol/kg IV day 0, 4, 8, sacrifice day 12, relative to PBS): 50.0 % control
- MALAT-1 RNA (% control) ([5]; Kidney, 1.2 μmol/kg IV day 0, 4, 8, sacrifice day 12, relative to PBS): 46.7 % control
- MALAT-1 RNA (% control) ([5]; Kidney, 3.6 μmol/kg IV day 0, 4, 8, sacrifice day 12, relative to PBS): 24.6 % control
- ED50 ([5]; Kidney): 3.535 µmol/kg
- MALAT-1 RNA (% control) ([5]; Liver, 0.4 μmol/kg IV day 0, 4, 8, sacrifice day 12, relative to PBS): 35.8 % control
- MALAT-1 RNA (% control) ([5]; Liver, 1.2 μmol/kg IV day 0, 4, 8, sacrifice day 12, relative to PBS): 24.1 % control
- MALAT-1 RNA (% control) ([5]; Liver, 3.6 μmol/kg IV day 0, 4, 8, sacrifice day 12, relative to PBS): 7.2 % control
- ED50 ([5]; Liver): 1.578 µmol/kg
